Assay results: patent publication US11932628B2, “Selective small molecule peptidomimetic melanocortin ligands” (REGENTS OF THE UNIVERSITY OF MINNESOTA, priority 2021, dated 2024)

What was measured:
[1] = target: T1, mMC4R (Mus musculus, UniProt P56450); test: Schild analysis of antagonist activity at mMC4R
Experimental: The antagonist activity may also be reported as a Ki value, which is the inverse Log of pA2. […] Compounds were dissolved in DMSO at a stock concentration of 10^−2 M and stored at −20° C. until assayed. HEK-293 cells stably expressing the selected melanocortin receptors were transiently transfected with 4 μg of CRE/β-galactosidase reporter gene. Briefly, 5000-15000 post transfection cells were plated into collagen treated 96-well plates (Nunc) and incubated overnight. […] The assay media was aspirated, and 50 μL of lysis buffer (250 mM Tris-HCl pH=8.0 and 0.1% Triton X-100) was added. The plates were stored at −80° C. overnight. The plates containing the cell lysates were thawed the following day. Aliquots of 10 μL were taken from each well and transferred to another 96-well plate for relative protein determination. To the cell lysate plates, 40 μL of phosphate-buffered saline with 0.5% BSA was added to each well. Subsequently, 150 μL of substrate buffer (60 mM sodium phosphate, 1 mM MgCl2, 10 mM KCl, 5 mM β-mercaptoethanol, 2 mg/mL ONPG) was added to each well and the plates were incubated at 37° C. The sample absorbance, OD405, was measured using a 96-well plate reader (Molecular Devices). The relative protein was determined by adding 200 μL of 1:5 dilution BioRad G250 protein dye:water to the 10 μL of cell lysate sample taken previously, and the OD595 was measured on a 96-well plate reader (Molecular Devices). Data points were normalized to forskolin and the relative protein content were used as positive controls. The EC50 values represent the mean of three or more independent experiments. The EC50 estimates, and their associated standard errors of the mean, were determined by fitting the data to a nonlinear least-squares analysis using the PRISM program (v4.0, GraphPad Inc.).
The reported values are on a log scale. In order to put them into perspective, their approximate binding disassociation constants, Ki values, can be calculated through the following relationship pA2=−Log10 (Ki).

[2] = target: mMC1R (Mus musculus, UniProt Q01727); test: cAMP based functional bioassay (CRE/β-galactosidase reporter), agonist activity at mMC1R
Experimental: (§1) The compounds were evaluated using a whole cell assay.
(§2) Compounds were dissolved in DMSO at a stock concentration of 10^−2 M and stored at −20° C. until assayed. HEK-293 cells stably expressing the selected melanocortin receptors were transiently transfected with 4 μg of CRE/β-galactosidase reporter gene. Briefly, 5000-15000 post transfection cells were plated into collagen treated 96-well plates (Nunc) and incubated overnight. […] The assay media was aspirated, and 50 μL of lysis buffer (250 mM Tris-HCl pH=8.0 and 0.1% Triton X-100) was added. The plates were stored at −80° C. overnight. The plates containing the cell lysates were thawed the following day. Aliquots of 10 μL were taken from each well and transferred to another 96-well plate for relative protein determination. To the cell lysate plates, 40 μL of phosphate-buffered saline with 0.5% BSA was added to each well. Subsequently, 150 μL of substrate buffer (60 mM sodium phosphate, 1 mM MgCl2, 10 mM KCl, 5 mM β-mercaptoethanol, 2 mg/mL ONPG) was added to each well and the plates were incubated at 37° C. The sample absorbance, OD405, was measured using a 96-well plate reader (Molecular Devices). The relative protein was determined by adding 200 μL of 1:5 dilution BioRad G250 protein dye:water to the 10 μL of cell lysate sample taken previously, and the OD595 was measured on a 96-well plate reader (Molecular Devices). Data points were normalized to forskolin and the relative protein content were used as positive controls. The EC50 values represent the mean of three or more independent experiments. The EC50 estimates, and their associated standard errors of the mean, were determined by fitting the data to a nonlinear least-squares analysis using the PRISM program (v4.0, GraphPad Inc.).
(§3) The results are tabulated in the form of EC50 values. In the case where the particular receptor was not activated to full activity at 100,000 nM, then the relative activity was reported.

[3] = target: mMC5R (Mus musculus, UniProt P41149); test: cAMP based functional bioassay (CRE/β-galactosidase reporter), agonist activity at mMC5R
Sequence of mMC5R (P41149 whole entry): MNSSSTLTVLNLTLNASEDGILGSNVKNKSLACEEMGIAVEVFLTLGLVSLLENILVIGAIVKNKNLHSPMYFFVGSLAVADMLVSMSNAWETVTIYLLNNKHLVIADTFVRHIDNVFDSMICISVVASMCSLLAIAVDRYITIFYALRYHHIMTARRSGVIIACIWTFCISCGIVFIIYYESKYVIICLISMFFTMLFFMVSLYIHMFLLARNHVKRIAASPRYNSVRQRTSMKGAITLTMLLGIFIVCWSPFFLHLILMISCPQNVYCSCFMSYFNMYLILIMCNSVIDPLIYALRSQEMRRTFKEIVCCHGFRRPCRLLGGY
Experimental: as §1, §2, §3

[4] = target: mMC3R (Mus musculus, UniProt P33033); test: cAMP based functional bioassay (CRE/β-galactosidase reporter), agonist activity at mMC3R; conditions: for mMC3R Activity @ 10 μM (class) / mMC3R Activity @ 10 μM (relative activity, percent): reported where receptor not activated to full activity
Sequence of mMC3R (P33033 whole entry): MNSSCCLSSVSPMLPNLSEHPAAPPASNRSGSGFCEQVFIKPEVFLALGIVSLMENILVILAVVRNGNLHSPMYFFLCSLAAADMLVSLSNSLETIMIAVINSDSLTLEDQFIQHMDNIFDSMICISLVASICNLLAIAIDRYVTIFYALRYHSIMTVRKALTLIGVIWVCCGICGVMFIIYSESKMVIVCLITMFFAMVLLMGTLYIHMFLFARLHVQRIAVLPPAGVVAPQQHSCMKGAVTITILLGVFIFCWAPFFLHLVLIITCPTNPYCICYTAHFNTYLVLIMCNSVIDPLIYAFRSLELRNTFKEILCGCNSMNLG
Experimental: as §1, §2, §3

[5] = target: T1, mMC4R; test: cAMP based functional bioassay (CRE/β-galactosidase reporter), agonist activity at mMC4R; parameters: Emax: dose or concentration left out as unconfirmed; conditions: for mMC4R Activity @ 10 μM (class) / mMC4R Activity @ 10 μM (relative activity, percent): reported where receptor not activated to full activity
Experimental: as §1, §2, §3

[6] = reported where receptor not activated to full activity

Sequence of mMC1R (Q01727 whole entry): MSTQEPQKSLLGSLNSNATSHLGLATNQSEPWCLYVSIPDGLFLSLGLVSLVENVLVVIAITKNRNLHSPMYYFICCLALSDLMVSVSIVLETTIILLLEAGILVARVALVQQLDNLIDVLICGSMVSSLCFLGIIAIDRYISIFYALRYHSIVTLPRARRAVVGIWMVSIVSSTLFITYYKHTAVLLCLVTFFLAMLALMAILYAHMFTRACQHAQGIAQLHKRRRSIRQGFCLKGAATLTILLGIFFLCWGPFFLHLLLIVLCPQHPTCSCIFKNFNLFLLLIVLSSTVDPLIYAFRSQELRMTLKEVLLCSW
T1 sequence (P56450 whole entry): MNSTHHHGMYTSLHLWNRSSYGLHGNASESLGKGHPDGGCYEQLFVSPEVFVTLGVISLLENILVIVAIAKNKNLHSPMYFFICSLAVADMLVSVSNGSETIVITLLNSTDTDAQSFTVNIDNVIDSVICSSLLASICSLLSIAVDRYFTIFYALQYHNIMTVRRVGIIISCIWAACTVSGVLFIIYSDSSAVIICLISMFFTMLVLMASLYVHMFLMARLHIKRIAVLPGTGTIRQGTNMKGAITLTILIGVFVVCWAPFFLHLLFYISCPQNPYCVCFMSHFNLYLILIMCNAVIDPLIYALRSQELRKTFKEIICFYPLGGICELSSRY

SMILES | Kb [1] [µM] | EC50 [2] [µM] | EC50 [3] [µM] | EC50 [4] [µM] | mMC4R Activity @ 10 μM (class) [5] | mMC4R Activity @ 10 μM (relative activity, percent) [5] [%] | mMC1R Activity @ 10 μM (class) [2, 6] | Ki [1] [µM] | mMC4R Antagonist pA2 ([1]; Schild analysis) | EC50 values at the melanocortin-3 receptor (in words) [4] | Emax ([5]; read-out: maximal activation at the melanocortin-4 receptor) [%] | mMC3R Activity @ 10 μM (class) [4] | mMC1R Activity @ 10 μM (relative activity, percent) [2, 6] [%] | mMC3R Activity @ 10 μM (relative activity, percent) [4] [%] | EC50 [5] [µM]
CC(C)[C@@H]1CNC(=N)N1C[C@@H]1CCCN1C[C@@H](CC1CCCCC1)N1C[C@@H]([C@@H](C)O)N(CC2CCC(C(C)(C)C)CC2)C1=N (stereo partly drawn) [TPI 2509-23, (R)-1-((S)-3-((4-(tert-butyl)cyclohexyl)methyl)-1-((R)-1-cyclohexyl-3-((S)-2-(((R)-2-imino-5-isopropylimidazolidin-1-yl)methyl)pyrrolidin-1-yl)propan-2-yl)-2-iminoimidazolidin-4-yl)ethanol] | 1.26 | 0.3 ± 0.12 | 0.15 ± 0.02 | 0.22 ± 0.03 | A (A: <50%) | 41 | – | – | – | – | – | – | – | – | –
CCC[C@@H]1CN([C@H](CC2CCCCC2)CN2CCC[C@H]2CN2C(=N)NC[C@H]2C(C)C)C(=N)N1CC1CCC(C(C)(C)C)CC1 (stereo partly drawn) [TPI 2509-26, (R)-3-((4-(tert-butyl)cyclohexyl)methyl)-1-((R)-1-cyclohexyl-3-((S)-2-(((R)-2-imino-5-isopropylimidazolidin-1-yl)methyl)pyrrolidin-1-yl)propan-2-yl)-4-propylimidazolidin-2-imine] | 1.58 | – | 0.54 ± 0.05 | 0.35 ± 0.02 | A (A: <50%) | 50 | B (B: >51%) | – | – | – | – | – | – | – | –
CC(C)[C@@H]1CNC(=N)N1C[C@@H]1CCCN1C[C@@H](Cc1ccccc1)N1C[C@@H]([C@@H](C)O)N(CC2CCC(C(C)(C)C)CC2)C1=N (stereo partly drawn) [TPI 2509-32, (R)-1-((S)-3-((4-(tert-butyl)cyclohexyl)methyl)-2-imino-1-((R)-1-((S)-2-(((R)-2-imino-5-isopropylimidazolidin-1-yl)methyl)pyrrolidin-1-yl)-3-phenylpropan-2-yl)imidazolidin-4-yl)ethanol] | 0.316 | 0.6 ± 0.34 | 0.49 ± 0.155 | 0.42 ± 0.12 | A (A: <50%) | – | – | 0.32 | 6.5±0.5 | nanomolar | > 20 | – | – | – | –
CC(C)C[C@@H]1CNC(=N)N1C[C@@H]1CCCN1C[C@@H](CC1CCCCC1)N1C[C@@H]([C@@H](C)O)N(CC23CC4CC(CC(C4)C2)C3)C1=N [TPI 2509-4, (R)-1-((S)-3-(adamantan-1-ylmethyl)-1-((R)-1-cyclohexyl-3-((S)-2-(((R)-2-imino-5-isobutylimidazolidin-1-yl)methyl)pyrrolidin-1-yl)propan-2-yl)-2-iminoimidazolidin-4-yl)ethanol] | 3.16 | 0.33 ± 0.11 | 0.34 ± 0.14 | 0.24 ± 0.04 | – | 55 | – | – | – | – | – | – | – | – | –
CC(C)[C@@H]1CNC(=N)N1C[C@@H]1CCCN1C[C@@H](CC1CCCCC1)N1C[C@@H]([C@@H](C)O)N(CC23CC4CC(CC(C4)C2)C3)C1=N [TPI 2509-22, (R)-1-((S)-3-(adamantan-1-ylmethyl)-1-((R)-1-cyclohexyl-3-((S)-2-(((R)-2-imino-5-isopropylimidazolidin-1-yl)methyl)pyrrolidin-1-yl)propan-2-yl)-2-iminoimidazolidin-4-yl)ethanol] | 1.58 | 0.2 ± 0.08 | 0.6 ± 0.21 | 0.37 ± 0.09 | A (A: <50%) | 49 | – | – | – | – | – | – | – | – | –
CC(C)[C@@H]1CNC(=N)N1C[C@@H]1CCCN1C[C@@H](CC1CCCCC1)N1C[C@@H](C(C)C)N(CC2CCC(C(C)(C)C)CC2)C1=N (stereo partly drawn) [TPI 2509-29, (R)-3-((4-(tert-butyl)cyclohexyl)methyl)-1-((R)-1-cyclohexyl-3-((S)-2-(((R)-2-imino-5-isopropylimidazolidin-1-yl)methyl)pyrrolidin-1-yl)propan-2-yl)-4-isopropylimidazolidin-2-imine] | – | 0.29 ± 0.02 | 0.51 ± 0.05 | 4.3 ± 3.3 | A (A: <50%) | 28 | – | – | – | – | – | – | – | – | –
CCC[C@@H]1CN([C@H](CC2CCCCC2)CN2CCC[C@H]2CN2C(=N)NC[C@H]2C(C)C)C(=N)N1CCCC(C)C [TPI 2509-27] | – | – | 1.04 ± 0.15 | – | A (A: <50%) | 40 | B (B: >51%) | – | – | – | – | B (B: >51%) | – | – | –
CCC[C@@H]1CN([C@H](CC2CCCCC2)CN2CCC[C@H]2CN2C(=N)NC[C@H]2CC(C)C)C(=N)N1CC12CC3CC(CC(C3)C1)C2 [TPI 2509-7] | – | – | 0.47 ± 0.09 | – | A (A: <50%) | 51 | B (B: >51%) | – | – | – | – | B (B: >51%) | 70 | 67 | –
CCC[C@@H]1CN([C@H](CC2CCCCC2)CN2CCC[C@H]2CN2C(=N)NC[C@H]2CC(C)C)C(=N)N1CC1CCC(C(C)(C)C)CC1 (stereo partly drawn) [TPI 2509-8, (R)-3-((4-(tert-butyl)cyclohexyl)methyl)-1-((R)-1-cyclohexyl-3-((S)-2-(((R)-2-imino-5-isobutylimidazolidin-1-yl)methyl)pyrrolidin-1-yl)propan-2-yl)-4-propylimidazolidin-2-imine] | – | 0.5 ± 0.05 | 0.53 ± 0.05 | – | B (B: >51%) | 65 | – | – | – | – | – | B (B: >51%) | – | 75 | –
CC(C)C[C@@H]1CNC(=N)N1C[C@@H]1CCCN1C[C@@H](CC1CCCCC1)N1C[C@@H](C(C)C)N(CC23CC4CC(CC(C4)C2)C3)C1=N [TPI 2509-10] | – | 0.57 ± 0.15 | 0.5 ± 0.04 | – | A (A: <50%) | 50 | – | – | – | – | – | B (B: >51%) | – | 70 | –
CC(C)[C@@H]1CNC(=N)N1C[C@@H]1CCCN1C[C@@H](Cc1ccccc1)N1C[C@@H](C(C)C)N(CC23CC4CC(CC(C4)C2)C3)C1=N [TPI 2509-37, (R)-3-(adamantan-1-ylmethyl)-1-((R)-1-((S)-2-(((R)-2-imino-5-isopropylimidazolidin-1-yl)methyl)pyrrolidin-1-yl)-3-phenylpropan-2-yl)-4-isopropylimidazolidin-2-imine] | – | 47.8 ± 23.1 | 0.66 ± 0.13 | 4 ± 1.9 | B (B: >51%) | 54 | – | – | – | – | – | – | – | – | –
CC[C@H](C)[C@@H]1CNC(=N)N1C[C@@H]1CCCN1C[C@@H](Cc1ccccc1)N1CC(Cc2ccc(O)cc2)N(CC2CCC(C(C)(C)C)CC2)C1=N (stereo partly drawn) [TPI 2509-40, 4-((1-((R)-1-((S)-2-(((R)-5-((S)-sec-butyl)-2-iminoimidazolidin-1-yl)methyl)pyrrolidin-1-yl)-3-phenylpropan-2-yl)-3-((4-(tert-butyl)cyclohexyl)methyl)-2-iminoimidazolidin-4-yl)methyl)phenol] | – | 0.29 ± 0.02 | 0.38 ± 0.05 | – | A (A: <50%) | 23 | – | – | – | – | – | B (B: >51%) | – | 65 | –
CCC[C@@H]1CN([C@H](Cc2ccccc2)CN2CCC[C@H]2CN2C(=N)NC[C@H]2C(C)C)C(=N)N1CC1CCC(C(C)(C)C)CC1 (stereo partly drawn) [TPI 2509-35, (R)-3-((4-(tert-butyl)cyclohexyl)methyl)-1-((R)-1-((S)-2-(((R)-2-imino-5-isopropylimidazolidin-1-yl)methyl)pyrrolidin-1-yl)-3-phenylpropan-2-yl)-4-propylimidazolidin-2-imine] | – | 2.3 ± 1 | 0.94 ± 0.34 | 6.2 ± 5.4 | A (A: <50%) | 27 | – | – | – | – | – | – | – | – | –
CC(C)C[C@@H]1CNC(=N)N1C[C@@H]1CCCN1C[C@@H](CC1CCCCC1)N1C[C@@H]([C@@H](C)O)N(CC2CCC(C(C)(C)C)CC2)C1=N (stereo partly drawn) [TPI 2509-5, (R)-1-((S)-3-((4-(tert-butyl)cyclohexyl)methyl)-1-((R)-1-cyclohexyl-3-((S)-2-(((R)-2-imino-5-isobutylimidazolidin-1-yl)methyl)pyrrolidin-1-yl)propan-2-yl)-2-iminoimidazolidin-4-yl)ethanol] | 1.58 | 0.3 ± 0.09 | 0.14 ± 0.07 | 0.21 ± 0.05 | – | 45 | – | – | – | – | – | – | – | – | –
CCC[C@@H]1CN([C@H](CC2CCCCC2)CN2CCC[C@H]2CN2C(=N)NC[C@H]2CC(C)C)C(=N)N1CCCC(C)C [TPI 2509-9] | – | 2.3 ± 0.09 | 1.8 ± 0.13 | – | – | – | – | – | – | – | – | B (B: >51%) | – | 58 | 6.7 ± 2.4
CC(C)CCCN1C(=N)N([C@H](CC2CCCCC2)CN2CCC[C@H]2CN2C(=N)NC[C@H]2C(C)C)C[C@H]1C(C)C [TPI 2509-30, (R)-1-((R)-1-cyclohexyl-3-((S)-2-(((R)-2-imino-5-isopropylimidazolidin-1-yl)methyl)pyrrolidin-1-yl)propan-2-yl)-4-isopropyl-3-(4-methylpentyl)imidazolidin-2-imine] | – | 6.1 | 1.7 ± 0.52 | – | B (B: >51%) | – | – | – | – | – | – | B (B: >51%) | – | – | –
CC(C)CCCN1C(=N)N([C@H](CC2CCCCC2)CN2CCC[C@H]2CN2C(=N)NC[C@H]2CC(C)C)C[C@H]1[C@H](C)O [TPI 2509-6] | – | 7.3 ± 4.4 | 0.63 ± 0.05 | – | A (A: <50%) | – | – | – | – | – | – | B (B: >51%) | – | 58 | –
